According to ChEMBL document CHEMBL3632483, “Synthesis and pharmacological evaluation of piperidine (piperazine)-substituted benzoxazole derivatives as multi-target antipsychotics” (Bioorg Med Chem Lett, 2015):
Activity calls are given as the source filed them. No cut-off for these calls is given here.

Key:
[1] = molecular target: T1, Adrenergic receptor alpha-2 (Rattus norvegicus, UniProt P22086+P19328+P22909); test: Displacement of [3H]-rauwolscine from adrenergic alpha2 receptor in rat cerebral cortex homogenates after 60 mins by liquid scintillation counting; assay type: tissue-based
T1 sequence (P22086 whole entry): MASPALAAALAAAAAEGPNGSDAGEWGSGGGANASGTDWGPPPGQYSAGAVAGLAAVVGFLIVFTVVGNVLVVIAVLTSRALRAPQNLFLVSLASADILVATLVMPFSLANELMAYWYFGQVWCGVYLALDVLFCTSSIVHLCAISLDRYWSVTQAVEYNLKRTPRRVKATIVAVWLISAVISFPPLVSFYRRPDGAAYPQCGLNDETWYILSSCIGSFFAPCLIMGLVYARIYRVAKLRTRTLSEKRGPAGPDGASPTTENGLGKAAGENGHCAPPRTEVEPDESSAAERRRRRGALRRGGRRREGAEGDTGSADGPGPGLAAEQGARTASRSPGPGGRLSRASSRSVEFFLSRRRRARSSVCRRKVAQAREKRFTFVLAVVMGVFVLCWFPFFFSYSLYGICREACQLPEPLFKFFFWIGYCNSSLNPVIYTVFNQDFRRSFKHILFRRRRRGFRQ
T1 sequence (P19328 whole entry): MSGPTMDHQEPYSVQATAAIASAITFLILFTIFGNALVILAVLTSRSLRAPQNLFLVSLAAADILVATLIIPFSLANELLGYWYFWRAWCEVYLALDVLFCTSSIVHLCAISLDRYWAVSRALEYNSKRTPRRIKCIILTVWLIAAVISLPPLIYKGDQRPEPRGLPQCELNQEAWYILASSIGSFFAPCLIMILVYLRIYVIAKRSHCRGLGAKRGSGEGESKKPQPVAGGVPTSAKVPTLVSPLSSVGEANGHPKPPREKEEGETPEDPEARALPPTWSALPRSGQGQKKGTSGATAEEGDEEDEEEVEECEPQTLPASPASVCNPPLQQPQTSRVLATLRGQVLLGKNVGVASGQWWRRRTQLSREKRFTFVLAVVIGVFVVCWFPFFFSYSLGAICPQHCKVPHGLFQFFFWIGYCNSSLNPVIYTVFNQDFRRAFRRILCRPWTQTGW
T1 sequence (P22909 whole entry): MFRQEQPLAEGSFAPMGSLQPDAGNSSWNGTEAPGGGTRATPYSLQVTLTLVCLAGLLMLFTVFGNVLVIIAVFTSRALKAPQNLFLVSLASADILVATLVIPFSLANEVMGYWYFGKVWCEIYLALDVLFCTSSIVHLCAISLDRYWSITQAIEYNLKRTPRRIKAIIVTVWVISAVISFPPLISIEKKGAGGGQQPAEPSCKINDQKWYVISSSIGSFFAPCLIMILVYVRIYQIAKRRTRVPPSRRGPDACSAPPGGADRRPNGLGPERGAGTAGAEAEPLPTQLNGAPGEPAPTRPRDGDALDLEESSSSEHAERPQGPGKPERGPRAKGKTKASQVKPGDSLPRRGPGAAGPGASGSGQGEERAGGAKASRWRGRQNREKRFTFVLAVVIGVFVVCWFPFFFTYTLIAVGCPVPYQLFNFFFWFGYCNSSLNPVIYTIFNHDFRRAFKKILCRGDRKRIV

[2] = molecular target: 5-hydroxytryptamine receptor 2A (Rattus norvegicus, UniProt P14842); test: Displacement of [3H]ketanserine from 5-HT2A receptor in rat cerebral cortex homogenates after 60 mins by liquid scintillation counting; assay type: tissue-based
[3] = molecular target: 5-hydroxytryptamine receptor 7 (Rattus norvegicus, UniProt P32305); test: biochemical
Description: Displacement of [3H]-5-CT from 5-HT7 receptor in rat hypothalamus homogenates after 120 mins by liquid scintillation counting

Histamine H1 receptor = Histamine H1 receptor (Cavia porcellus, UniProt P31389); test: Displacement of [3H]mepyramine from histamine H1 receptor in guinea pig cerebellum homogenates after 60 mins by liquid scintillation counting
Mus musculus [4] = test: Toxicity in po dosed Chinese Kun Ming mouse assessed as induction of catalepsy by measuring immobility score of 30 seconds administered 30 mins before first assessment; assay type: organism-based; conditions: in vivo, 0.5 h
Mus musculus [5] = test: Antipsychotic activity in po dosed Chinese Kun Ming mouse assessed as inhibition of apomorphine-induced climbing administered 30 mins before apomorphine challenge measured up to 30 mins; assay type: functional
Mus musculus [6] = test: Neurotoxicity in Chinese Kun Ming mouse assessed as locomotor activity by measuring total distance traveled at 1 mg/kg, po administered 1 hr before test measured for 10 mins (reference value: 13263.8 +/- 8034.2 millimeter); assay type: toxicity, organism-based; conditions: in vivo
Mus musculus [7] = test: Antipsychotic activity in po dosed Chinese Kun Ming mouse assessed as inhibition of DOI-induced head twitch administered 60 mins before DOI challenge measured up to 15 mins; assay type: functional
Mus musculus [8] = test: Neurotoxicity in Chinese Kun Ming mouse assessed as locomotor activity by measuring total distance traveled at 3 mg/kg, po administered 1 hr before test measured for 10 mins (reference value: 13263.8 +/- 8034.2 millimeter); assay type: toxicity, organism-based; conditions: in vivo
Mus musculus [9] = test: Antipsychotic activity in Chinese Kun Ming mouse assessed as inhibition of apomorphine-induced reaching behaviour at 1 mg/kg, po administered 30 mins before apomorphine challenge measured up to 30 mins; assay type: functional, organism-based
Mus musculus [10] = test: Antipsychotic activity in Chinese Kun Ming mouse assessed as inhibition of apomorphine-induced climbing behaviour at 1 mg/kg, po administered 30 mins before apomorphine challenge measured up to 30 mins; assay type: functional, organism-based
Mus musculus [11] = test: Neurotoxicity in Chinese Kun Ming mouse assessed as locomotor activity by measuring total distance traveled at 10 mg/kg, po administered 1 hr before test measured for 10 mins (reference value: 13263.8 +/- 8034.2 millimeter); assay type: toxicity, organism-based; conditions: in vivo

Chain of 5-hydroxytryptamine receptor 2A (P14842 whole entry): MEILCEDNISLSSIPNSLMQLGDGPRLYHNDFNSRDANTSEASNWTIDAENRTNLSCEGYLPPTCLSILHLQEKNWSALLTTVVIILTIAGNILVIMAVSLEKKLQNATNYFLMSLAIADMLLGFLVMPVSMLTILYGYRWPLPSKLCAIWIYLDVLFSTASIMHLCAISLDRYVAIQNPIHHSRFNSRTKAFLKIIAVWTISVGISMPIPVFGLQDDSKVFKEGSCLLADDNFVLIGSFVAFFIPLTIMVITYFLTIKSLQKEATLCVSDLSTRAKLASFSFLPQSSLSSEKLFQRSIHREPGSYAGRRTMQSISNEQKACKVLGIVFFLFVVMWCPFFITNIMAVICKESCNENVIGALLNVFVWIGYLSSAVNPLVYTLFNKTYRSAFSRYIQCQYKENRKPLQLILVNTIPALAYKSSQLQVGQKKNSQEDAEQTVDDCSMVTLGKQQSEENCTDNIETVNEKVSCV
Chain of 5-hydroxytryptamine receptor 7 (P32305 whole entry): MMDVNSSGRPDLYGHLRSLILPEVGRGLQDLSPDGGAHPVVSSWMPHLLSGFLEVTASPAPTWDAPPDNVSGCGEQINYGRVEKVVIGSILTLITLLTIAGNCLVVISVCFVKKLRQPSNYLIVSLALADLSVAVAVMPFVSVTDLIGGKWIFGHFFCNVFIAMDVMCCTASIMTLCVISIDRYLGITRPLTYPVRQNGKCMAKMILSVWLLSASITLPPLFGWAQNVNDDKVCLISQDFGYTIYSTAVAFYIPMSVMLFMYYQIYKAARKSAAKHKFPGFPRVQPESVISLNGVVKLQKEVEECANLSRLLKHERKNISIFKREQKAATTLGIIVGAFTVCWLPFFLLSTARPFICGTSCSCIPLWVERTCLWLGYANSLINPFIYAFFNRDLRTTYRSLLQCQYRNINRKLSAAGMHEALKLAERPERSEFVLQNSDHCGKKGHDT
Chain of Histamine H1 receptor (P31389 whole entry): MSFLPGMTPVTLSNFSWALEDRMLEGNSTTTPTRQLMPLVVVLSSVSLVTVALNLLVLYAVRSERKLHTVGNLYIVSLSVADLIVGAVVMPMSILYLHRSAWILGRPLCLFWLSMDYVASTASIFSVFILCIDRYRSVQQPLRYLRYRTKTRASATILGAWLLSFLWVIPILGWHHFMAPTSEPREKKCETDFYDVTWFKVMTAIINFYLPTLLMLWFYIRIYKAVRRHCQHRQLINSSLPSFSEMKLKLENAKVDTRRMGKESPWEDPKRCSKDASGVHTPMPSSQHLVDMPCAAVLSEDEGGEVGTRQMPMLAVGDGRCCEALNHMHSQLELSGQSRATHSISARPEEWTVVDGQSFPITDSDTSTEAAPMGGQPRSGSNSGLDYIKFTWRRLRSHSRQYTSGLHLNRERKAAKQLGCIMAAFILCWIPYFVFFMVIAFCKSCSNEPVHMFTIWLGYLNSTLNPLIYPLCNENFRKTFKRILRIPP

Q: `Fc1ccc2c(C3CCN(CCCOc4ccc(-c5nc6ccccc6o5)cc4)CC3)noc2c1` was tested. Which Ki [1] did it give?
A: Its Ki is 153 nM.

Q: And the Ki [2]?
A: The Ki was 8.3 nM.

Q: What about the Ki [3] of the same compound?
A: Its Ki is 765 nM.

Q: For `Fc1ccc2c(C3CCN(CCCOc4ccc(Cc5nc6ccccc6o5)cc4)CC3)noc2c1`, which Ki (Histamine H1 receptor) is on record?
A: Its Ki is 3150 nM.

Q: And the ED50 (Mus musculus [4])?
A: The ED50 was 70.5 mg/kg.

Q: What about the ED50 (Mus musculus [5]) of the same compound?
A: The ED50 was 0.86 mg/kg.

Q: And the Ki [1]?
A: Its Ki is 16.3 nM.

Q: What about the Activity (Mus musculus [6]) of the same compound?
A: Its Activity is 13046.7 mm.

Q: What about the ED50 (Mus musculus [7]) of the same compound?
A: Its ED50 is 0.71 mg/kg.

Q: And the inhibition (Mus musculus [7])?
A: Its inhibition is “Dose-dependent effect”.

Q: What about the Activity (Mus musculus [8]) of the same compound?
A: Its Activity is 10447.5 mm.

Q: What about the Ki [2] of the same compound?
A: The Ki was 2.7 nM.

Q: And the Ki [3]?
A: Its Ki is 18.9 nM.

Q: What about the inhibition (Mus musculus [9]) of the same compound?
A: Its inhibition is “Active”.

Q: What about the inhibition (Mus musculus [10]) of the same compound?
A: The inhibition was “Active”.

Q: And the Activity (Mus musculus [11])?
A: The Activity was 9492.4 mm.
